Measurements as given in PMC5502055, “Phase II study of lanreotide autogel in Japanese patients with unresectable or metastatic well-differentiated neuroendocrine tumors” (Investigational New Drugs, 2017).

Tests used:
[1] = tested on: Japanese patients with grade (G) 1/G2 NET; assay: Safety: adverse events (NCI-CTCAE ver. 4.0); assay type: in vivo, human; conditions: for Adverse events (any): N=32
Description: (§1) For the safety evaluation, adverse events (AEs) were recorded after the first injection until the point of data cutoff (December 2015) in the extension study. AE severity was assessed according to the National Cancer Institute Common Terminology Criteria for Adverse Events (NCI-CTCAE) ver. 4.0. Gallbladder echography and blood evaluations, including serum anti-lanreotide antibody tests were performed every 12 weeks during the 48 -week period after the first injection, and every 24 weeks thereafter.
Full analysis set (FAS) and CLARINET-like FAS which was satisfied eligibility criteria of the CLARINET study were used for efficacy analysis. Safety analysis set which included patients who had received the study drug at least once was used for safety analysis. Per protocol set (PPS) was used for pharmacokinetic analysis.
Safety was evaluated using results which obtained by the data in the phase II and extension studies up to the time of data cutoff. The maximum exposure period from baseline to the time of data cutoff was 100.0 weeks (median, 87.3 weeks), and the mean exposure period (SD) was 83.1 weeks (15.2 weeks).
Adverse events were evaluated using the National Cancer Institute Common Terminology Criteria for Adverse Events (NCI-CTCAE), ver. 4.0.

[2] = Serum anti-lanreotide antibody test (radioimmunoprecipitation assay); assay type: in vivo, human
Description: as §1
Serum anti-lanreotide antibody levels were determined every 4 weeks for the 24-weeks period following the start of administration, and every 12 weeks thereafter for the 48-weeks. Serum anti-lanreotide antibody levels were centrally determined using a validated radioimmunoprecipitation assay (RIPA; SGS Cephac, Saint-Benoît, France). Anti-lanreotide antibody-positivity was evaluated in two stages: screening test and confirmation test. Antibody titers were determined for samples found to be positive in the confirmation test.

[3] = CLARINET study; cited from earlier work
Excerpt: No interracial differences were observed regarding drug concentrations in the blood. This inter-study difference in the number of treatment required to achieve steady state is attributed to the associated with the low num ...

For `CC(C)[C@@H]1NC(=O)[C@H](CCCCN)NC(=O)[C@@H](Cc2c[nH]c3ccccc23)NC(=O)[C@H](Cc2ccc(O)cc2)NC(=O)[C@@H](NC(=O)[C@H](N)Cc2ccc3ccccc3c2)CSSC[C@@H](C(=O)N[C@H](C(N)=O)[C@@H](C)O)NC1=O` [lanreotide], the “Serious AEs” value ([1]; 6 patients of 32) was 18.8%, the “Adverse events (any)” value ([1]; Grade 3) was 11 (34.4) Number of patients (%) and the “Grade 3 or higher ADRs” value ([1]; Grade 3 only, 6 patients of 32) was 18.8%. The “Adverse events (any)” value ([1]; Grade 4) was 2 (6.3) Number of patients (%), the “Adverse events (any)” value ([1]; Grade 5) was 0 Number of patients (%) and the ADR faeces pale ([1]; safety analysis set n=32) was 18.8%. The ADR flatulence ([1]; safety analysis set n=32) was 12.5%, the “ADR injection site induration” value ([1]; safety analysis set n=32) was 28.1% and the “Grade 4/5 ADRs and ADRs necessitating discontinuation of the study drug” value ([1]; safety analysis set n=32) was “did not occur”. The “serious ADR pyrexia” value ([1]; safety analysis set n=32) was 3.1%, the “patients with AEs related to study drug (ADRs)” value ([1]; safety analysis set n=32, 27 patients) was 84.4% and the “patients with AEs” value ([1]; safety analysis set n=32, 31 patients) was 96.9%. The “patients positive for anti-lanreotide antibodies” value ([2]; 2 patients, RIPA) was 6.3%, the Anti-lanreotide antibody test ([2]; Patient A, Baseline) was “Negative” and the Anti-lanreotide antibody test ([2]; Patient A, Week 4) was “Negative”. For the same compound, the Anti-lanreotide antibody test ([2]; Patient A, Week 8) was “Negative”, the Anti-lanreotide antibody test ([2]; Patient A, Week 12) was “Negative” and the Anti-lanreotide antibody test ([2]; Patient A, Week 16) was “Positive”. For the same compound, the Antibody titer ([2]; Patient A, Week 16) was 1/1, the Anti-lanreotide antibody test ([2]; Patient A, Week 20) was “Negative” and the Anti-lanreotide antibody test ([2]; Patient A, Week 24) was “Negative”. The Anti-lanreotide antibody test ([2]; Patient A, Week 36) was “Positive”, the Antibody titer ([2]; Patient A, Week 36) was 1/2 and the Anti-lanreotide antibody test ([2]; Patient B, Baseline) was “Negative”. For the same compound, the Anti-lanreotide antibody test ([2]; Patient B, Week 4) was “Negative”, the Anti-lanreotide antibody test ([2]; Patient B, Week 8) was “Positive” and the Antibody titer ([2]; Patient B, Week 8) was 1/4. The Anti-lanreotide antibody test ([2]; Patient B, Week 12) was “Positive”, the Antibody titer ([2]; Patient B, Week 12) was 1/32 and the Anti-lanreotide antibody test ([2]; Patient B, Week 16) was “Positive”. The Antibody titer ([2]; Patient B, Week 16) was 1/32, the Anti-lanreotide antibody test ([2]; Patient B, Week 20) was “Positive” and the Antibody titer ([2]; Patient B, Week 20) was 1/64. For the same compound, the Anti-lanreotide antibody test ([2]; Patient B, Week 24) was “Positive”, the Antibody titer ([2]; Patient B, Week 24) was 1/64 and the Anti-lanreotide antibody test ([2]; Patient B, Week 36) was “Positive”. The Antibody titer ([2]; Patient B, Week 36) was 1/256, the Anti-lanreotide antibody test ([2]; Patient B, Week 48) was “Positive” and the Antibody titer ([2]; Patient B, Week 48) was 1/512. For the same compound, the “number of injections to steady state” value [3] was 6 injections.
